{"source": "patent US9840532B2", "about": "“5′-substituted nucleoside compounds” (Eli Lilly and Company, priority 2015, dated 2017)", "key": {"EOL-1 cells": {"test_system": "EOL-1 cells", "test": "Combination with BCL2 inhibitor ABT-199 in AML cell lines, 7-day cell proliferation assay", "type": "cell-based", "details": "Homo sapiens, EOL1, 168 h; EOL-1, treatment duration 7 Days; single agent or combination; read-out: Absolute IC50 (cell proliferation)", "procedure": "(§1) On day 1, plate GDM-1 [ATCC®, maintained throughout in GDM-1 assay medium: RPMI-1640 medium/20% heat-inactivated FBS (GIBCO®)] and EOL-1 cells [ATCC®, maintained throughout in EOL-1 assay medium: RPMI-1640 medium/10% heat-inactivated FBS (GIBCO®)] at 4000 and 10000 cells/well (100 μL/well) respectively, in a 96-well assay plate (BD FALCON® 35-3219). Incubate the plates in a 37° C. incubator (5% CO2) for 18-24 hr. On day 2, prepare 2.0% DMSO with assay medium (as indicated above or RPMI-1640/20% heat-inactivated FBS and RPMI-1640/10% FBS for GDM-1 and EOL-1, respectively) and add 100 μL to columns 3-12 in a preparation plate. Prepare test compounds ABT-199 at 10 μM in 2% DMSO and PRMT5 inhibitor Example 1 at 25 μM in 2% DMSO and dispense into wells A2 and B2, respectively, followed by serial dilution (1:3, 10 points) to wells A11 and B11, respectively. For combinational treatment, serially dilute test compound examples at 1:2 in assay medium (as indicated above or RPMI-1640/20% heat-inactivated FBS and RPMI-1640/10% FBS for GDM-1 and EOL-1, respectively) in wells C2-C11 (0.1 μM) to H2-H11, then serially dilute test compound ABT-199 1:3 from C2-H2 (1.0 μM) to C11-H11. […] Incubate plates for 10-15 min at room temperature before reading. Measure luminescence using the PERKIN-ELMER® ENVISION® Multi-Label Reader. […]"}, "GDM-1 cells": {"test_system": "GDM-1 cells", "test": "Combination with BCL2 inhibitor ABT-199 in AML cell lines, 4-day cell proliferation assay", "type": "cell-based", "details": "Homo sapiens, 96 h; GDM-1, treatment duration 4 Days; single agent or combination; read-out: Absolute IC50 (cell proliferation)", "procedure": "as §1"}, "[1]": {"test_system": "Namalwa (Burkitt's lymphoma) cells", "test": "Xenograft tumor model, lymphoma (Namalwa)", "type": "in vivo, mouse", "details": "oral gavage", "procedure": "(§2) The purpose of this assay is to measure in a mouse model of cancer the reduction in tumor volume in response to test compound administration.\n(§3) Grow A375 (melanoma) cells in DMEM/High glucose (HYCLONE™ cat. # SH30022) with 10% HI FBS (GIBCO® cat. #10082-147). Grow Will-2 (DLBCL) cells in RPMI 1640 with L-glutamine and 20% heat inactivated FBS. Grow Namalwa (Burkitt's lymphoma) cells (ATCC) in RPMI 1640 media supplemented with L-glutamine, 25 mM HEPES (GIBCO® 22400-089), 1 mM sodium pyruvate and 7.5% FBS. Grow Molt 4 cells in RPMI 1640 with L-glutamine, 25 mM HEPES [GIBCO 22400-089], 1 mM sodium pyruvate, and 10% FBS. Harvest cells and inject subcutaneously onto the rear flank of nude mice (A375: 5×10^6 cells/animal, mixed 1:1 with MATRIGEL®; Will-2; 1×10^7 cells/animal; Namalwa: 2×10^6 cells/animal; Molt 4: : 5×10^6 cells/animal, mixed 1:1 with MATRIGEL®). When tumors are established (approximately 200 mm^3, 7-21 days after implant), randomize animals, and group them into control and test groups. Formulate the test compound in 1% HEC/0.25% TWEEN®-80/0.05% Antifoam. Administer test compound and vehicles by oral gavage. Determine tumor response by tumor volume measurement (caliper) performed twice a week during the course of treatment and report as the percent inhibition of tumor volume versus the vehicle control group."}, "Will-2 (DLBCL) cells": {"test_system": "Will-2 (DLBCL) cells", "test": "Xenograft tumor model, DLBCL (WILL-2)", "type": "in vivo, mouse", "details": "oral gavage", "procedure": "as §2, §3"}}}
{"smiles": "Nc1ncnc2c1ccn2[C@@H]1O[C@H]([C@H](O)c2ccc(Cl)cc2)[C@@H](O)[C@H]1O", "note": "[Example 1, (2R,3R,4S,5R)-2-(4-Aminopyrrolo[2,3-d]pyrimidin-7-yl)-5-[(R)-(4-chlorophenyl)-hydroxy-methyl]tetrahydrofuran-3,4-diol]", "values": [{"measurement": "IC50", "setting": "EOL-1 cells", "value": 0.006, "unit": "µM"}, {"measurement": "IC50", "setting": "GDM-1 cells", "value": 0.224, "unit": "µM"}, {"measurement": "percent inhibition of tumor volume versus vehicle", "setting": "[1]; 2 mg/kg BID for 14 days", "value": 74, "unit": "%"}, {"measurement": "percent inhibition of tumor volume versus vehicle", "setting": "[1]; 5 mg/kg QD for 14 days", "value": 61, "unit": "%"}, {"measurement": "tumor regression", "setting": "Will-2 (DLBCL) cells; 2 mg/kg BID for 14 days", "value": 50, "unit": "%"}, {"measurement": "percent inhibition of tumor volume versus vehicle", "setting": "Will-2 (DLBCL) cells; 5 mg/kg QD for 14 days", "value": 74, "unit": "%"}]}
